What was measured:
Type in all cases: biochemical
FAAH [1] = molecular target: FAAH (Homo sapiens (Human), UniProt O00519); assay: In vitro competitive activity-based protein profiling, FAAH (human); conditions: 1 μM, human proteome; read-out: FAAH % inh. 1 μM (human)
Experimental: (§1) In Vitro Competitive Activity-Based Protein Profiling.
(§2) Proteomes (mouse brain membrane fraction or cell lysates for mouse assays; human prefrontal cortex or cell membrane fractions for human assays) (50 μL, 1.0 mg/mL total protein concentration) were preincubated with varying concentrations of inhibitors at 37° C. After 30 min, FP—Rh or HT-01 (1.0 μL, 50 μM in DMSO) was added and the mixture was incubated for another 30 min at 37° C. Reactions were quenched with SDS loading buffer (15 μL-4×) and run on SDS-PAGE. Following gel imaging, serine hydrolase activity was determined by measuring fluorescent intensity of gel bands corresponding to MAGL and FAAH using ImageJ 1.43u software.

MAGL [2] = molecular target: MAGL (Homo sapiens (Human), UniProt Q99685); assay: In vitro competitive activity-based protein profiling, MAGL (human); conditions: 1 μM, human proteome; read-out: MAGL % inh. 1 μM (human)
Chain of MAGL (Homo sapiens (Human), UniProt Q99685) (Q99685 whole entry): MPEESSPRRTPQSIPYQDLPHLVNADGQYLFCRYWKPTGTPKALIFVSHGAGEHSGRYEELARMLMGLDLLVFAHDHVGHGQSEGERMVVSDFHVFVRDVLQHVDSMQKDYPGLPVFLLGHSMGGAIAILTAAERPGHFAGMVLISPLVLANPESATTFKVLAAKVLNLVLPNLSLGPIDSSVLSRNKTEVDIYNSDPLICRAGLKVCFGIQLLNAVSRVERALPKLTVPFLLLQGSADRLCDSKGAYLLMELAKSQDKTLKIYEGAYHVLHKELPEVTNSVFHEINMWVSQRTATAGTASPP
Experimental: as §1, §2

FAAH [3] = molecular target: FAAH (Mus musculus (Mouse), UniProt O08914); assay: In vitro competitive activity-based protein profiling, FAAH (mouse); conditions: for inhibition at 1 µM: read-out: FAAH % inh. 1 μM (mouse)
Chain of FAAH (Mus musculus (Mouse), UniProt O08914) (O08914 whole entry): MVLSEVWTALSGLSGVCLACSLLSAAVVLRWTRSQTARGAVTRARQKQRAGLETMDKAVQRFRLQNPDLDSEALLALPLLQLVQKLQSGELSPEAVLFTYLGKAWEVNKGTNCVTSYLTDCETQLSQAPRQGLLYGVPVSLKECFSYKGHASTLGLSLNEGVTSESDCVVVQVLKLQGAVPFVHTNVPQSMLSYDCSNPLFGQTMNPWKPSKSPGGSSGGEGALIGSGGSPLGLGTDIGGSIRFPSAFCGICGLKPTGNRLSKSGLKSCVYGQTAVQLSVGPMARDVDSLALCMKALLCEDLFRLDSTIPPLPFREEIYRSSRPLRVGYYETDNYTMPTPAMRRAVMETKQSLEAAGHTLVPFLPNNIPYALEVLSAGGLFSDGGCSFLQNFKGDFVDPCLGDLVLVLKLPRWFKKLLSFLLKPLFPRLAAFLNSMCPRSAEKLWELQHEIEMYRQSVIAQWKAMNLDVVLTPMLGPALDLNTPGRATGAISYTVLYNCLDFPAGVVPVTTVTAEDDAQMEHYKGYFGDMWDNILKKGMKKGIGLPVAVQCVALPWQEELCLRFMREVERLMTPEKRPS
How it was run: (§3)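 Competitive ABPP; proteome 1.0 mg/mL total protein; mouse = brain membranes or cell lysates, human = prefrontal cortex or cell membranes. Inhibitor preinc 30 min, 37° C; FP-Rh/HT-01 (50 μM DMSO stock) 30 min, 37° C; SDS-PAGE, in-gel fluorescence of MAGL/FAAH bands.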

MAGL [4] = molecular target: MAGL (Mus musculus (Mouse), UniProt O35678); assay: In vitro competitive activity-based protein profiling, MAGL (mouse); conditions: for inhibition at 1 µM: read-out: MAGL % inh. 1 μM (mouse)
Chain of MAGL (Mus musculus (Mouse), UniProt O35678) (O35678 whole entry): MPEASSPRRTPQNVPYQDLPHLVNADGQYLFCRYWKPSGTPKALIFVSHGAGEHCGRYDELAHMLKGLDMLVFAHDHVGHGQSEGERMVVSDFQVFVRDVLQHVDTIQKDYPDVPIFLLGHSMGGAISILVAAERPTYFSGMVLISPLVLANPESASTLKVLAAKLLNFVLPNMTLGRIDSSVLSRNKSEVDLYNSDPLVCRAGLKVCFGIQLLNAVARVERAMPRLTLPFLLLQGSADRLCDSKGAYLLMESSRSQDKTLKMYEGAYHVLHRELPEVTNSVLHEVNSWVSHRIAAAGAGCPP
How it was run: as §3

Chain of FAAH (Homo sapiens (Human), UniProt O00519) (O00519 whole entry): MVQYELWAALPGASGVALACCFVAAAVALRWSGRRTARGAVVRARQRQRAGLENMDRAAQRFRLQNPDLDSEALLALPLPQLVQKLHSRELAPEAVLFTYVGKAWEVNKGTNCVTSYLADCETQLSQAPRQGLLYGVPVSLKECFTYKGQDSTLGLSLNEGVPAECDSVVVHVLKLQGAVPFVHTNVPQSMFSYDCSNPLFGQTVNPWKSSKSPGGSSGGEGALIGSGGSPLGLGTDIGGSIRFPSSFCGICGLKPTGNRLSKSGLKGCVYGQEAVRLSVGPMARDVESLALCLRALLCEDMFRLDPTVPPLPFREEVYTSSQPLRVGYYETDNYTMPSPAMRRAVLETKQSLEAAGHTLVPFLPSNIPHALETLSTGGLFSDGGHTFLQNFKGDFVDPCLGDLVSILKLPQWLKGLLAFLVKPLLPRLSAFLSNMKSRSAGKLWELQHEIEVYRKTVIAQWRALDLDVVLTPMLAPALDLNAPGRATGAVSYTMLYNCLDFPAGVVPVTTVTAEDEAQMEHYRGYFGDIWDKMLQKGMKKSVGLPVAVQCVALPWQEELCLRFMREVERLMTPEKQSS

| Compound | inhibition at 1 µM (FAAH [1]) | inhibition at 1 µM (MAGL [2]) | inhibition at 1 µM (FAAH [3]) | inhibition at 1 µM (MAGL [4]) | IC50 (FAAH [3]) | IC50 (MAGL [4]) |
| --- | --- | --- | --- | --- | --- | --- |
| CC(=O)N(C)c1cnn(C(=O)N2CCC3(CC2)CN(Cc2ccccc2F)C3)c1 [Example 41, N-(1-(2-(2-fluorobenzyl)-2,7-diazaspiro[3.5]nonane-7-carbonyl)-1H-pyrazol-4-yl)-N-methylacetamide] |  |  | 50 to 75% | ≥ 75% |  |  |
| CC(=O)N(C)c1cnn(C(=O)N2CCC3(CC2)CN(Cc2ccc(N4CCCC4)cc2)C3)c1 [Example 25, N-methyl-N-(1-(2-(4-(pyrrolidin-1-yl)benzyl)-2,7-diazaspiro[3.5]nonane-7-carbonyl)-1H-pyrazol-4-yl)acetamide] |  |  | 50 to 75% | ≥ 75% |  |  |
| CC(=O)N(C)c1cnn(C(=O)N2CC3CN(Cc4cc(Cl)cc(N5CCCC5)c4)CC3C2)c1 (stereo not shown) [Example 110, N-(1-(5-(3-chloro-5-(pyrrolidin-1-yl)benzyl)octahydropyrrolo[3,4-c]pyrrole-2-carbonyl)-1H-pyrazol-4-yl)-N-methylacetamide] |  |  | ≥ 75% | ≥ 75% | ≤ 100 nM | ≤ 100 nM |
| CC(=O)N(C)c1cnn(C(=O)N2CCC3(CCN(Cc4cccc(C(F)(F)F)c4)C3)C2)c1 (single isomer, unassigned) [Example 66, N-methyl-N-(1-(7-(3-(trifluoromethyl)benzyl)-2,7-diazaspiro[4.4]nonane-2-carbonyl)-1H-pyrazol-4-yl)acetamide] |  |  |  |  | ≤ 100 nM | 100 to 1000 nM |
| CC(=O)N(C)c1cnn(C(=O)N2CC3CN(Cc4ccc(N5C6CCC5COC6)cc4C(F)(F)F)CC3C2)c1 (stereo not shown) [Example 102, N-(1-(5-(4-(3-oxa-8-azabicyclo[3.2.1]octan-8-yl)-2-(trifluoromethyl)benzyl)octahydropyrrolo[3,4-c]pyrrole-2-carbonyl)-1H-pyrazol-4-yl)-N-methylacetamide] |  |  | ≥ 75% | ≥ 75% |  |  |
| CC(=O)N(C)c1cnn(C(=O)N2C[C@H]3C[C@H](N(C)Cc4cccc(Cl)c4)C[C@H]3C2)c1 [Example 147, N-(1-(trans-5-((3-chlorobenzyl)(methyl)amino)octahydrocyclopenta[c]pyrrole-2-carbonyl)-1H-pyrazol-4-yl)-N-methylacetamide] |  |  | ≥ 75% | ≥ 75% | ≤ 100 nM | ≤ 100 nM |
| CC(=O)N(C)c1cnn(C(=O)N2CC3CN(Cc4cccc(Cl)c4Cl)CC3C2)c1 (stereo not shown) [Example 107, N-(1-(5-(2,3-dichlorobenzyl)octahydropyrrolo[3,4-c]pyrrole-2-carbonyl)-1H-pyrazol-4-yl)-N-methylacetamide] |  |  | ≥ 75% | ≥ 75% | ≤ 100 nM | ≤ 100 nM |
| CC(=O)N(C)c1cnn(C(=O)N2CCC3(CC2)CN(Cc2ccc(N4CCOCC4)cc2C)C3)c1 [Example 29, N-methyl-N-(1-(2-(2-methyl-4-morpholinobenzyl)-2,7-diazaspiro[3.5]nonane-7-carbonyl)-1H-pyrazol-4-yl)acetamide] |  |  | 25 to 50% | ≥ 75% |  |  |
| CC(=O)N(C)c1cnn(C(=O)N2CCC3(CC2)CN(Cc2ccc(C)cc2)C3)c1 [Example 32, N-methyl-N-(1-(2-(4-methylbenzyl)-2,7-diazaspiro[3.5]nonane-7-carbonyl)-1H-pyrazol-4-yl)acetamide] |  |  | 25 to 50% | ≥ 75% |  |  |
| CC(=O)N(C)c1cnn(C(=O)N2CC3CN(Cc4ccc(C(F)(F)F)cc4)CC3C2)c1 (stereo not shown) [Example 14, N-methyl-N-(1-(5-(4-(trifluoromethyl)benzyl)octahydropyrrolo[3,4-c]pyrrole-2-carbonyl)-1H-pyrazol-4-yl)acetamide] |  |  | ≥ 75% | ≥ 75% | ≤ 100 nM | ≤ 100 nM |
| CC(=O)N(C)c1cnn(C(=O)N2CCC3(CCN(Cc4ccc(N5CCCC5)c(C(F)(F)F)c4)C3)C2)c1 (stereo not shown) [Example 69, N-methyl-N-(1-(7-(4-(pyrrolidin-1-yl)-3-(trifluoromethyl)benzyl)-2,7-diazaspiro[4.4]nonane-2-carbonyl)-1H-pyrazol-4-yl)acetamide] |  |  | ≥ 75% | ≥ 75% |  |  |
| CC(=O)N(C)c1cnn(C(=O)N2C[C@H]3C[C@H](N(C)Cc4cc(C(F)(F)F)ccc4N4CCCC4)C[C@H]3C2)c1 [Example 144, N-methyl-N-(1-(trans-5-(methyl(2-(pyrrolidin-1-yl)-5-(trifluoromethyl)benzyl)amino)octahydrocyclopenta[c]pyrrole-2-carbonyl)-1H-pyrazol-4-yl)acetamide] |  |  | 50 to 75% | ≥ 75% |  |  |

Now from value to compound:

| inhibition at 1 µM (FAAH [1]) | inhibition at 1 µM (MAGL [2]) | inhibition at 1 µM (FAAH [3]) | inhibition at 1 µM (MAGL [4]) | IC50 (FAAH [3]) | IC50 (MAGL [4]) | Compound |
| --- | --- | --- | --- | --- | --- | --- |
| ≥ 75% | ≥ 75% |  |  |  |  | CS(=O)(=O)Nc1cnn(C(=O)N2CCN(Cc3ccc(-c4nc5ccccc5s4)cc3C(F)(F)F)CC2)c1 [Example 305, N-(1-(4-(4-(benzo[d]thiazol-2-yl)-2-(trifluoromethyl)benzyl)piperazine-1-carbonyl)-1H-pyrazol-4-yl)methanesulfonamide] |
| ≥ 75% | ≥ 75% |  |  |  |  | CS(=O)(=O)Nc1cnn(C(=O)N2CCN(Cc3ccc(-c4cncnc4)cc3C(F)(F)F)CC2)c1 [Example 290, N-(1-(4-(4-(pyrimidin-5-yl)-2-(trifluoromethyl)benzy1)piperazine-1-carbonyl)-1H-pyrazol-4-yl)methanesulfonamide] |
|  |  | ≥ 75% | ≥ 75% | ≤ 100 nM | ≤ 100 nM | CS(=O)(=O)Nc1cnn(C(=O)N2CCC3(CC2)CN(Cc2cc(Cl)ccc2C(F)(F)F)C3)c1 [Example 277, N-(1-(2-(5-chloro-2-(trifluoromethyl)benzyl)-2,7-diazaspiro[3.5]nonane-7-carbonyl)-1H-pyrazol-4-yl)methanesulfonamide] |
|  |  | ≥ 75% | ≥ 75% |  |  | CC(=O)N(C)c1cnn(C(=O)N2CC3CN(Cc4ccc(-c5nccs5)cc4Cl)CC3C2)c1 (stereo not shown) [Example 267, N-(1-(5-(2-chloro-4-(thiazol-2-yl)benzyl)octahydropyrrolo[3,4-c]pyrrole-2-carbonyl)-1H-pyrazol-4-yl)-N-methylacetamide] |
|  |  | 25 to 50% | ≥ 75% |  |  | CC(=O)N(C)c1cnn(C(=O)N2C[C@H]3C[C@@H](N(Cc4cccc(Cl)c4)C(C)=O)C[C@H]3C2)c1 [Example 170, N-(3-chlorobenzyl)-N-(cis-2-(4-(N-methylacetamido)-1H-pyrazole-1-carbonyl)octahydrocyclopenta[c]pyrrol-5-yl)acetamide] |
|  |  | ≥ 75% | ≥ 75% | 100 to 1000 nM | 100 to 1000 nM | CC(=O)N(C)c1cnn(C(=O)N2CCC3(CCN(Cc4cccc(Cl)c4)C3)CC2)c1 [Example 187, N-(1-(2-(3-chlorobenzyl)-2,8-diazaspiro[4.5]decane-8-carbonyl)-1H-pyrazol-4-yl)-N-methylacetamide] |
|  |  | ≥ 75% | 25 to 50% |  |  | CS(=O)(=O)Nc1cnn(C(=O)N2CCN(Cc3ccc(-c4ccncn4)cc3C(F)(F)F)CC2)c1 [Example 309, N-(1-(4-(4-(pyrimidin-4-yl)-2-(trifluoromethyl)benzyl)piperazine-1-carbonyl)-1H-pyrazol-4-yl)methanesulfonamide] |
|  |  | ≥ 75% | 50 to 75% | 100 to 1000 nM | 100 to 1000 nM | CC(=O)N(C)c1cnn(C(=O)N2CC3CN(Cc4cccc(F)c4)CC3C2)c1 (stereo not shown) [Example 180, N-(1-(5-(3-fluorobenzyl)octahydropyrrolo[3,4-c]pyrrole-2-carbonyl)-1H-pyrazol-4-yl)-N-methylacetamide] |
|  |  | ≥ 75% | ≥ 75% |  |  | CC(=O)N(C)c1cnn(C(=O)N2CC3CN(Cc4ccc(-c5ncccn5)cc4Cl)CC3C2)c1 (stereo not shown) [Example 261, N-(1-(5-(2-chloro-4-(pyrimidin-2-yl)benzyl)octahydropyrrolo[3,4-c]pyrrole-2-carbonyl)-1H-pyrazol-4-yl)-N-methylacetamide] |
|  |  | ≥ 75% | 25 to 50% |  |  | CS(=O)(=O)Nc1cnn(C(=O)N2CCC3(CCN(Cc4cc(Cl)ccc4C(F)(F)F)C3)C2)c1 (stereo not shown) [Example 284, N-[1-[(7-[[5-chloro-2-(trifluoromethyl)phenyl]methyl]-2,7-diazaspiro[4.4]nonan-2-yl)carbonyl]-1H-pyrazol-4-yl]methanesulfonamide] |
|  |  | 25 to 50% | ≥ 75% |  |  | CC(=O)N(C)c1cnn(C(=O)N2C[C@H]3C[C@@H](N(Cc4ccccc4Cl)C(C)=O)C[C@H]3C2)c1 [Example 169, N-(2-chlorobenzyl)-N-(cis-2-(4-(N-methylacetamido)-1H-pyrazole-1-carbonyl)octahydrocyclopenta[c]pyrrol-5-yl)acetamide] |
|  |  | ≥ 75% | ≥ 75% | ≤ 100 nM | ≤ 100 nM | CC(=O)N(C)c1cnn(C(=O)N2CCC3(CCN(Cc4cc(Cl)ccc4Cl)C3)C2)c1 (single isomer, unassigned) [Example 176, N-(1-(7-(2,5-dichlorobenzyl)-2,7-diazaspiro[4.4]nonane-2-carbonyl)-1H-pyrazol-4-yl)-N-methylacetamide] |
